One block for each compound: values may come before it.
How the values were obtained:
[1] = test system: RES-LTC chondrosarcoma cell line; test: Quantitative picogreen assay for cell proliferation; type: cell-based; conditions: 10 mM, 48 hour timepoint, FIG. 4
Protocol: Quantitative picogreen for cell proliferation (μgDNA/ml).
(§1) Assay data analysis: Expressed as % of the positive controls for MTT and picogreen. MTT absorbance measures then normalized to the μgDNA/ml generated by the picogreen assay.
(§2) Cell cultures: RES-LTC chondrosarcoma cell line. Expresses hyaline-like chondrocyte phenotype and reliably produces large, homogeneous cell populations
(§3) Cell cultures in 96 well plates. Each compound, at a fixed concentration, was added in triplicate for each assay. MTT and picogreen assays in separate plates (assays interfere with each other). All plates treated together. Assays run at 48 hour timepoint. Microscopy performed to confirm findings.

[2] = test system: RES-LTC chondrosarcoma cell line; test: Modified MTT assay for metabolic activity; type: cell-based; conditions: 48 hour timepoint; for MTT metabolic activity: FIG. 3
Protocol: Assays: Modified MTT assay for metabolic activity (absorbance).
as §1, §2, §3

rabbit stifle joints = test: Single intra-articular injection toxicity model in rabbit stifles; type: in vivo, New Zealand White rabbits; conditions: for Synovial inflammation scoring: versus PBS-injected stifles, FIG. 7
Description: Rabbits were euthanized two weeks post-injection. Both left and right stifles were harvested and immediately fixed in 10% neutral buffered formalin, then set for histological processing. Five-micron thick slides from each knee were stained with Hematoxylin & Eosin and Safranin-O.

human knee = conditions: 10 minutes after intraarticular injection of 25 ml of 5 mM solution in PBS, 3 Tesla, FIG. 9
Protocol: Coronal T1-weighted MR images of a human knee were taken in a human cadaver. Coronal T1-weighted MR contrast images were also taken ex vivo in a human cadaver 10 minutes after intraarticular injection of 25 ml of a 5 mM solution of DAB-4 citrate diluted in PBS. […] All images were performed on a Siemens Skyra 3 Tesla magnet using a 15 channel transmit/receive QED knee coil. (14 cm FOV (field of view); 3 mm thick slice; 384×384 matrix; TR 800 ms; TE 8.6 ms; Turbo factor of 2; receiver bandwidth 350 Hz/pixel.)

[3] = test system: glycosaminoglycans (GAG) in the cartilage; test: T1 value map versus Safranin-O/fast green histology of cartilage-bone plug equilibrated in contrast agent (GAG targeting); conditions: human tibial plateau cartilage-bone plug equilibrated in contrast agent
Description: Cartilage-bone plug excised from a human tibial plateau that was retrieved from total knee replacement surgery was equilibrated in DAB-4 linked nitroxide citrate. T1 value map (as acquired for FIG. 1) is compared to histology in FIG. 2: • a) T1 value map: orange color is lower T1 value indicating more contrast agent and more glycosaminoglycans (GAG) in the cartilage. • b) Histology of the same specimen stained with Safranin-O/fast green.

[4] = two weeks post-injection, histology

MTT data normalized to μgDNA/ml (health of the cells) ([2]; 10 mM, FIG. 5): abnormally high
Compound: CNC[C@H](O)[C@@H](O)[C@H](O)[C@H](O)CO.CNC[C@H](O)[C@@H](O)[C@H](O)[C@H](O)CO.O=C([O-])CN(CCN(CC(=O)[O-])CC(=O)O)CCN(CC(=O)[O-])CC(=O)O.[Gd+3] [Magnevist]
Picogreen cell proliferation [1]: low cell proliferation
clinical signs of inflammation or lameness (rabbit stifle joints; single intra-articular injection, two weeks observation): No animals presented clinical signs of inflammation or lameness
Modified Mankin scoring (structural damage / joint degeneration) (rabbit stifle joints; two weeks post-injection, histology, FIG. 6): did not uncover any signs of structural damage and/or degenerative response
Synovial inflammation scoring (rabbit stifle joints; [4]): no difference between Magnevist or DAB-4 linked nitroxide and the PBS-injected stifles

Compound: Citric Acid Salt of DAB-4 Linked Nitroxide [DAB-4 linked nitroxide citrate]
T1-weighted MR contrast of joint fluid and cartilage surfaces (human knee): the joint fluid (asterisk) is now bright and outlines the cartilage surfaces
detection of cartilage defect on T1-weighted MR image (human knee): A partial thickness cartilage defect (arrow) is easily identified
agreement of T1 value map with histology stain for GAG concentration [3]: high GAG concentration in the same areas indicated by DAB-4 linked nitroxide on the T1 value map and the stain on the histology map

Compound: DAB-dendrimer-(NH-3-CO-PROXYL)8 [DAB-8 linked nitroxide]
MTT metabolic activity ([2]; concentrations above 1 mM): less metabolic activity than positive controls (untreated), or DAB-4 linked nitroxide and Magnevist

Compound: DAB-dendrimer-(NH-3-CO-PROXYL)4 [DAB-4 linked nitroxide]
MTT metabolic activity ([2]; 1-10 mM): less metabolic activity than positive controls but greater than for DAB-8 linked nitroxide
Synovial inflammation scoring (rabbit stifle joints; [4]): no difference between Magnevist or DAB-4 linked nitroxide and the PBS-injected stifles
agreement of T1 value map with histology stain for GAG concentration [3]: high GAG concentration in the same areas as indicated by DAB-4 linked nitroxide on the T1 value map and the stain on the histology map

From patent US9943613B2 (priority 2012, dated 2018)
